# Results from patent publication US20070015232A1, “Mitotic index assay” (DiscoveRx, Inc., priority 2005, published 2007).
# Experiments:
# [1] = test system: C2C12+EA-NLS/NRS+GR-PL cells; assay: EFC mitotic index assay, C2C12+EA-NLS/NRS+GR-PL cells (Stanford GR cells); format: cell-based, mouse; conditions: 24 hours, 30 min read
# Procedure: (§1) In all experiments described, 20,000 cells/well were plated in a 96 well Corning clear bottom white plate in a total volume of 100 μL. The cells were treated for 24 hours with 5 μL of either the appropriate vehicle control or varying concentrations of the six compounds listed above. The next day, 100 μL of Tropix/ABI Gal screen cell lysis buffer/substrate mixture (24:1 ratio of component) was added to the cells/media and the plate was read on the Victor II luminescent plate reader at 30, 60 and 120 minutes after the lysis/substrate addition.
# (§2) The initial test of the cell cycle arresting compounds was performed on a double stable cell line having both of the constructs expressing the EA-NLS/NRS and GR-PL. (PL is β-galactosidase enzyme donor fragment and EA is the enzyme acceptor fragment available from DiscoveRx, Fremont, CA.). The parental line, C2C12 is derived from mouse muscle cells. In the experiments in which EA-NLS/NRS and GR-PL are expressed in the C2C12 parental cell line, the constructs were generated by subcloning the human GR sequence into a MFG-based retroviral vector that had been molecularly altered in a lab at Stanford. An MFG vector is described in U.S. Pat. No. 6,544,771. The EA-NLS/NRS fragment was subcloned into a wzl-based retroviral vector again molecularly altered in a lab at Stanford. In the experiments performed using a CHO-K1 parental cell line background the EA-NLS/NRS was subcloned into the Kpn I and Xba I sites of pcDNA3.1 Hygro vector from Invitrogen (catalog #V870-20). The plasmid was introduced into the cells via FuGene6 (Roche) transfection reagent. Cells were selected in the presence of 250 μg/mL of Hygromycin and single cell clones isolated that expressed the EA-NLS/NRS. The human GR gene was cloned by PCR and subcloned into the Xho I and Bam HI sites of the DiscoveRx vector-pCMV-myc-PL (C3). The plasmid was introduced into the selected EA-NLS/NRS expressing clone isolated above by FuGene 6 transfection. Another round of screening in the presence of 300-500 μg/mL of G418 was used to select GR-PL transfected clones. Clonal selection was performed to finally identify the clone that was used in these studies. In the studies using the CHO-K1+cyto-EA and cJUN-PL, the same Invitrogen pcDNA3.1 Hygro vector was used to express EA. In this case, the EA fragment was subcloned into the Kpn I/Not I sites of pcDNA3.1 Hygro. The plasmid DNA was introduced as described above using FuGene6 reagent. Cells were selected in the presence of 250 μg/mL of hygromycin and clonal selection was performed. The c-Jun gene was generated by PCR using an existing template copy of the gene and then subcloned into the Xho I/Bam HI sites of pCMV-PL-myc (C3).
# [2] = test system: CHO-K1+cyto-EA cells transfected with cJUN-PL; assay: EFC mitotic index assay, CHO-K1+cyto-EA cells transiently transfected with cJUN-PL; format: cell-based; conditions: for Avg luminescence readout / R1 luminescence readout / R3 luminescence readout / Ratio (Avg vs 0 conc): overnight
# Procedure: as §2
# To further test the concept of sequestering of one β-galactosidase enzyme fragment in the nucleus (in this case PL) while localizing the other component in the cytoplasm (in this case EA) the following experiment was carried out. […] The cyto-EA cells were transiently transfected with cJUN-PL plasmid DNA. Two days after the transfection, the cells were re-plated into a 96 well Corning white clear bottom multiwell plate at 20,000 cells/well. The cells were allowed to adhere overnight and the next day were treated with titrating concentrations of the six different cell cycle blocking compounds. The incubation was carried out overnight. The next day the media was removed from the cells and 100 μL of Tropix/ABI Gal screen cell lysis/substrate reagent was added to the cells.
# [3] = test system: CHO-K1+EA-NLS/NRS+GR-PL cells; assay: EFC mitotic index assay, CHO-K1+EA-NLS/NRS+GR-PL cells, antibiotic selected pool (DX M19/GR pool); format: cell-based; conditions: 24 hours, 30 min read
# Procedure: as §1, §2
# In the next experiment, an antibiotic selected pool population of CHO-K1 cells that express EA-NLS/NRS and GR-PL were tested with the same six set of cell cycle blocking compounds. […] FIGS. 2a and 2b show the immunofluorescence localization of EA and GR-PL in that the blue DAPI nuclear staining can be seen to be concentrated in the nucleus, while the green fluorescein stain on the antibody (from Abcam PLC) to the glucocorticoid receptor is seen in the cytoplasm. […] Again, six tables are presented one for each of the six drugs tested.
# This only occurs with compounds that block the cells in mitosis, allowing EA and ProLabel to complement.
# [4] = test system: Clone #69 CHO-K1 cells expressing EA-NLS/NRS and GR-PL; assay: EFC assay in stable clone #69 (CHO-K1, EA-NLS/NRS and GR-PL) with or without RU486 pre-incubation; format: cell-based; conditions: for Avg luminescence readout / R1 luminescence readout / R3 luminescence readout / Ratio (Avg vs 0 conc): overnight, vehicle pre-incubation
# Procedure: In the next experiment, a stable clone (clone #69) expressing both EA-NLS/NRS and GR-PL was isolated in a CHO-K1 parental background. […] 20,000 cells/well were plated in a 96 well white coming multi-well plate and allowed to adhere overnight. The next day, the cells were washed two times with serum free F12 media and 100 μL of serum free F12 media was added to the cells. The cells were then incubated in either vehicle (ethanol-1% final concentration) or 10 μM RU486 for one hour. To the cells, three different concentrations of dexamethasone (300, 100, 30 μM) (an agonist of GR), RU486 (30, 10, 3.33 μM), colchicine (1, 0.3, 0.1 μ/mL) or nocodazole (10, 3.33, 1.11 μg/mL) were added and the incubation went overnight at 37° C. with 5% CO2. The next day, the media was aspirated off and 100 μL of Tropix/ABI Gal screen cell lysis/substrate reagent was added to the cells. The plate was read on the Victor II reader at 30, 60 and 120 minutes.
# [5] = High conc (nocodazole 10 μg/mL, colchicine 1 μ/mL, dexamethasone 300 μM, RU486 30 μM)
# [6] = Low conc (nocodazole 1.11 μg/mL, colchicine 0.1 μ/mL, dexamethasone 30 μM, RU486 3.33 μM)
# [7] = Med conc (nocodazole 3.33 μg/mL, colchicine 0.3 μ/mL, dexamethasone 100 μM, RU486 10 μM)
smiles,measurement,setting,value
"COc1cc2c(c(OC)c1OC)-c1ccc(OC)c(=O)cc1[C@@H](NC(C)=O)CC2 [Colchicine, colchicine]",Avg luminescence readout,[1]; 0.03 μM,11782
same,R1 luminescence readout,[1]; 0.03 μM,10442
same,R3 luminescence readout,[1]; 0.03 μM,12456
same,Ratio (Avg vs 0 conc),[1]; 0.03 μM,1
same,Avg luminescence readout,[1]; 0.1 μM,9170
same,R1 luminescence readout,[1]; 0.1 μM,6763
same,R3 luminescence readout,[1]; 0.1 μM,10724
same,Ratio (Avg vs 0 conc),[1]; 0.1 μM,1
same,Avg luminescence readout,[1]; 0.3 μM,11243
same,R1 luminescence readout,[1]; 0.3 μM,11132
same,R3 luminescence readout,[1]; 0.3 μM,12160
same,Ratio (Avg vs 0 conc),[1]; 0.3 μM,1
same,Avg luminescence readout,[1]; 1 μM,12083
same,R1 luminescence readout,[1]; 1 μM,11891
same,R3 luminescence readout,[1]; 1 μM,11866
same,Ratio (Avg vs 0 conc),[1]; 1 μM,1
same,Avg luminescence readout,[2]; 0.3 μg/mL,8548
same,R1 luminescence readout,[2]; 0.3 μg/mL,7491
same,R3 luminescence readout,[2]; 0.3 μg/mL,9730
same,Ratio (Avg vs 0 conc),[2]; 0.3 μg/mL,1.2
same,Avg luminescence readout,[2]; 1.0 μg/mL,10762
same,R1 luminescence readout,[2]; 1.0 μg/mL,11290
same,R3 luminescence readout,[2]; 1.0 μg/mL,9929
same,Ratio (Avg vs 0 conc),[2]; 1.0 μg/mL,1.5
same,Avg luminescence readout,[2]; 3.0 μg/mL,13255
same,R1 luminescence readout,[2]; 3.0 μg/mL,12822
same,R3 luminescence readout,[2]; 3.0 μg/mL,13005
same,Ratio (Avg vs 0 conc),[2]; 3.0 μg/mL,1.9
same,Avg luminescence readout,[2]; 10.0 μg/mL,14719
same,R1 luminescence readout,[2]; 10.0 μg/mL,13772
same,R3 luminescence readout,[2]; 10.0 μg/mL,14302
same,Ratio (Avg vs 0 conc),[2]; 10.0 μg/mL,2.1
same,increase in EFC activity,[2]; overnight incubation,~2.1 fold
same,Avg luminescence readout,[3]; 0.03 μM,3412
same,R1 luminescence readout,[3]; 0.03 μM,3128
same,R3 luminescence readout,[3]; 0.03 μM,3727
same,Ratio (Avg vs 0 conc),[3]; 0.03 μM,1
same,Avg luminescence readout,[3]; 0.1 μM,5814
same,R1 luminescence readout,[3]; 0.1 μM,6507
same,R3 luminescence readout,[3]; 0.1 μM,4886
same,Ratio (Avg vs 0 conc),[3]; 0.1 μM,2
same,Avg luminescence readout,[3]; 0.3 μM,7251
same,R1 luminescence readout,[3]; 0.3 μM,7078
same,R3 luminescence readout,[3]; 0.3 μM,7341
same,Ratio (Avg vs 0 conc),[3]; 0.3 μM,3
same,Avg luminescence readout,[3]; 1 μM,11843
same,R1 luminescence readout,[3]; 1 μM,10671
same,R3 luminescence readout,[3]; 1 μM,13178
same,Ratio (Avg vs 0 conc),[3]; 1 μM,4
same,effect of incubation with RU486 on the EFC response (in words),[4]; 10 μM RU486 pre-incubation for one hour,not blocked by the incubation with RU486
same,Avg luminescence readout,[4]; [5],1623
same,R1 luminescence readout,[4]; [5],1850
same,R3 luminescence readout,[4]; [5],1323
same,Ratio (Avg vs 0 conc),[4]; [5],4
same,Avg luminescence readout,[4]; [6],1136
same,R1 luminescence readout,[4]; [6],1274
same,R3 luminescence readout,[4]; [6],1007
same,Ratio (Avg vs 0 conc),[4]; [6],3
same,Avg luminescence readout,[4]; [7],1241
same,R1 luminescence readout,[4]; [7],1345
same,R3 luminescence readout,[4]; [7],1073
same,Ratio (Avg vs 0 conc),[4]; [7],3
"C[C@@H]1C[C@H]2[C@@H]3CCC4=CC(=O)C=C[C@]4(C)[C@@]3(F)[C@@H](O)C[C@]2(C)[C@@]1(O)C(=O)CO [Dexamethasone, dexamethasone]",Avg luminescence readout,[4]; [5],2559
same,R1 luminescence readout,[4]; [5],3173
same,R3 luminescence readout,[4]; [5],1934
same,Ratio (Avg vs 0 conc),[4]; [5],7
same,Avg luminescence readout,[4]; [6],1258
same,R1 luminescence readout,[4]; [6],1528
same,R3 luminescence readout,[4]; [6],1016
same,Ratio (Avg vs 0 conc),[4]; [6],3
same,Avg luminescence readout,[4]; [7],1697
same,R1 luminescence readout,[4]; [7],2033
same,R3 luminescence readout,[4]; [7],1290
same,Ratio (Avg vs 0 conc),[4]; [7],4
